Like-named read-outs stand apart in the source and are kept apart here.
Target: T1, Androgen Receptor (Homo sapiens, UniProt P10275)
T1 construct: endogenous in cells; host or cells: VCaP cells
T1 sequence (P10275 1-920): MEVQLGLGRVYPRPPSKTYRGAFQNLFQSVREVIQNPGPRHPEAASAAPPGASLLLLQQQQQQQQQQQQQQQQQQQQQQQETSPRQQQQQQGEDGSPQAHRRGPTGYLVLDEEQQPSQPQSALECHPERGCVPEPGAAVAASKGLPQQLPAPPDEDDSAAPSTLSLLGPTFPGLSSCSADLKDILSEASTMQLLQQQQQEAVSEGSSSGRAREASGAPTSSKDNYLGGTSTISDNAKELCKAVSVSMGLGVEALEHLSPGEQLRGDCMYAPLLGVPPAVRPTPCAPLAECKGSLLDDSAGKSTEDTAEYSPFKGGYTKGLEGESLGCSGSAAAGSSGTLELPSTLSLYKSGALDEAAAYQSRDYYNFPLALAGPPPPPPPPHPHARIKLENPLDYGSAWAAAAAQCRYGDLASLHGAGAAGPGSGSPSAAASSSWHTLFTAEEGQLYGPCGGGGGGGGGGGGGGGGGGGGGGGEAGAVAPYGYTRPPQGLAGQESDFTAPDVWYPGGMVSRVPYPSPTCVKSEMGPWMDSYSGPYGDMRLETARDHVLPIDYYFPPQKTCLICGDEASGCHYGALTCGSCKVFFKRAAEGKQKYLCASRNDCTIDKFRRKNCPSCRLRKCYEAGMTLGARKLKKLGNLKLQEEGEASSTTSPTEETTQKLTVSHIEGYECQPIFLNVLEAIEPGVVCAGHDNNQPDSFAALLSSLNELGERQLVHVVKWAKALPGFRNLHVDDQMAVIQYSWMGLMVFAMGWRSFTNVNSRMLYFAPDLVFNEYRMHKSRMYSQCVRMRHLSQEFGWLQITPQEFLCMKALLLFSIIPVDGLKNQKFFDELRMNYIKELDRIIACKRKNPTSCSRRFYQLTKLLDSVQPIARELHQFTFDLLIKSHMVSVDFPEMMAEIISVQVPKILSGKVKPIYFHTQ
Experiment: Androgen Receptor ELISA assay (PathScan AR ELISA) in VCaP cells: AR degradation, Dmax and DC50
Assay type: cell-based
Outline: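 VCaP cells in phenol red-free RPMI with 5% charcoal-stripped FBS were grown at least 3 days, then given compound as 7 half-log doses in 0.1% DMSO with 0.1 nM R1881 for 24 h. Lysates went into a sandwich AR ELISA with TMB read at 450 nm.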

[1] = read-out: VCaP DC50; VCaP cells; Table 35
[2] = VCaP cells; Table 36; read-out: VCaP DC50
[3] = VCaP, read-out: VCaP Dmax (%), VCaP cells; Table 36
[4] = read-out: VCaP DC50; concentration that caused 50% Androgen Receptor degradation, VCaP cells (Table 32)

Row | Structure (SMILES) | Dmax (VCaP, read-out: VCaP Dmax (%)) [%] | DC50 [2] [nM] | other results
1 | Cc1ncsc1-c1ccc([C@H](C)NC(=O)[C@@H]2C[C@@H](O)CN2C(=O)[C@@H](NC(=O)COc2ccc(OC3CCN(c4ccc(N5C(=S)N(c6ccc(C#N)c(C(F)(F)F)c6)C(=O)C5(C)C)cc4)CC3)nc2)C(C)(C)C)cc1 [Example 430] | < 25 | – | DC50 [1]: > 501 nM
2 | Cc1ncsc1-c1ccc([C@H](C)NC(=O)[C@@H]2C[C@@H](O)CN2C(=O)[C@@H](NC(=O)CN[C@H]2C[C@H](OC3CCN(c4ccc(C(=O)N[C@H]5C(C)(C)[C@H](Oc6ccc(C#N)c(Cl)c6)C5(C)C)cn4)CC3)C2)C(C)(C)C)cc1 [Example 832, N-((1r,3r)-3-(3-chloro-4-cyanophenoxy)-2,2,4,4-tetramethylcyclobutyl)-6-(4-((1S,3r)-3-((2-(((S)-1-((2S,4R)-4-hydroxy-2-(((S)-1-(4-(4-methylthiazol-5-yl)phenyl)ethyl)carbamoyl)pyrrolidin-1-yl)-3,3-dimethyl-1-oxobutan-2-yl)amino)-2-oxoethyl)amino)cyclobutoxy)piperidin-1-yl)nicotinamide] | > 71 | < 50 | –
3 | Cc1ncsc1-c1ccc([C@H](C)NC(=O)[C@@H]2C[C@@H](O)CN2C(=O)[C@@H](NC(=O)COCCCCCNc2ccc(C(=O)N[C@H]3C(C)(C)[C@H](Oc4ccc(C#N)c(Cl)c4)C3(C)C)cc2F)C(C)(C)C)cc1 [Example 656, (2S,4R)-1-((S)-2-(2-((5-((4-(((1r,3r)-3-(3-chloro-4-cyanophenoxy)-2,2,4,4-tetramethylcyclobutyl)carbamoyl)-2-fluorophenyl)amino)pentyl)oxy)acetamido)-3,3-dimethylbutanoyl)-4-hydroxy-N-((S)-1-(4-(4-methylthiazol-5-yl)phenyl)ethyl)pyrrolidine-2-carboxamide] | – | < 50 | Dmax [3]: > 71%
4 | C#CCCC(=O)OC(CCOCCCOCC(=O)N[C@H](C(=O)N1C[C@H](O)C[C@H]1C(=O)N[C@@H](C)c1ccc(-c2scnc2C)cc1)C(C)(C)C)CCOc1ccc(N2C(=S)N(c3ccc(C#N)c(C(F)(F)F)c3)C(=O)C2(C)C)cc1 (stereo partly drawn) [Example 632, 1-(4-(3-(4-cyano-3-(trifluoromethyl)phenyl)-5,5-dimethyl-4-oxo-2-thioxoimidazolidin-1-yl)phenoxy)-5-(3-(2-(((S)-1-((2S,4R)-4-hydroxy-2-(((S)-1-(4-(4-mehtylthiazol-5-yl)phenyl)ethyl)carbam-oyl)pyrrolidin-1-yl)-3,3-dimethyl-1-oxobutan-2-yl)amino)-2-oxoethoxy)propoxy)pen-tan-3-yl pent-4-ynoate] | – | > 501 | VCaP Dmax (%) (VCaP cells; Table 36): ++ (26% ≤ Dmax ≤ 50%)
5 | CC(NC(=O)C1CC(O)CN1C(=O)C(c1cc(OCCN2CCN(c3ccc(C(=O)NC4C(C)(C)C(Oc5ccc(C#N)c(Cl)c5)C4(C)C)cn3)CC2)no1)C(C)C)c1ccc(C#N)cc1 [Example 697, N-((1r,3r)-3-(3-chloro-4-cyanophenoxy)-2,2,4,4-tetramethylcyclobutyl)-6-(4-(2-((5-((R)-1-((2S,4R)-2-(((S)-1-(4-cyanophenyl)ethyl)carb-amoyl)-4-hydroxypyrrolidin-1-yl)-3-methyl-1-oxobutan-2-yl)isoxazol-3-yl)oxy)ethyl)piperazin-1-yl)nicotinamide] | – | < 50 | Dmax [3]: 26 to 50%
6 | Cc1ncsc1-c1ccc([C@H](C)NC(=O)[C@@H]2C[C@@H](O)CN2C(=O)[C@H](C(C)C)n2cc(OCCCOCCCCCOc3ccc(N4C(=S)N(c5ccc(C#N)c(C(F)(F)F)c5)C(=O)C4(C)C)cc3)cn2)cc1 [Example 435] | – | – | DC50 [1]: > 501 nM
7 | Cc1ncsc1-c1ccc([C@H](C)NC(=O)[C@H]2C[C@H](O)CN2C(=O)[C@@H](NC(=O)CN2C3CCC2CN(CCCCc2ccc(C(=O)N[C@H]4C(C)(C)[C@H](Oc5ccc(C#N)c(Cl)c5)C4(C)C)cc2)C3)C(C)(C)C)cc1 [Example 858, (2R,4S)-1-((2S)-2-(2-(3-(4-(4-(((1r,3r)-3-(3-chloro-4-cyanophenoxy)-2,2,4,4-tetramethylcyclobutyl)carbamoyl)phenyl)butyl)-3,8-diazabicyclo[3.2.1]octan-8-yl)acetamido)-3,3-dimethylbutanoyl)-4-hydroxy-N-((S)-1-(4-(4-methylthiazol-5-yl)phenyl)ethyl) pyrrolidine-2-carboxamide] | < 25 | > 501 | –
8 | Cc1ncsc1-c1ccc([C@H](C)NC(=O)[C@@H]2C[C@@H](O)CN2C(=O)[C@@H](NC(=O)CN2CCN(C3CC4(C3)CN(c3ccc(C(=O)N[C@H]5C(C)(C)[C@H](Oc6ccc(C#N)c(Cl)c6)C5(C)C)cn3)C4)CC2)C(C)(C)C)cc1 [Example 809, N-((1r,3r)-3-(3-chloro-4-cyanophenoxy)-2,2,4,4-tetramethylcyclobutyl)-6-(6-(4-(2-(((S)-1-((2S, 4R)-4-hydroxy-2-(((S)-1-(4-(4-methylthiazol-5-yl)phenyl)ethyl)carbamoyl)pyrrolidin-1-yl)-3,3-dimethyl-1-oxobutan-2-yl)amino)-2-oxoethyl)piperazin-1-yl)-2-azaspiro[3.3]heptan-2-yl)n icotinamide] | > 71 | < 50 | –
9 | Cc1ncsc1-c1ccc(CNC(=O)[C@@H]2C[C@@H](O)CN2C(=O)[C@@H](NC(=O)COCCC[C@H](C)Oc2ccc(-c3ccc(N4C(=S)N(c5ccc(C#N)c(C(F)(F)F)c5)C(=O)C4(C)C)cc3)cc2)C(C)(C)C)cc1 [Example 142, (2S,4R)-1-[(2S)-2-(2-{[(4R)-4-[4-(4-{3-[4-cyano-3-(trifluoromethyl)phenyl]-5,5-dimethyl-4-oxo-2-sulfanylideneimidazolidin-1-yl}phenyl)phen-oxy]pentyl]oxy}acetamido)-3,3-dimethylbutanoyl]-4-hydroxy-N-{[4-(4-methyl-1,3-thiazol-5-yl)phenyl]methyl}pyrrolidine-2-carboxamide] | > 71 | – | DC50 [4]: < 50 nM
10 | Cc1ncsc1-c1ccc([C@H](C)NC(=O)C2C[C@@H](O)CN2C(=O)[C@@H](NC(=O)CCCC2(N3CCN(c4ccc(C(=O)N[C@H]5C(C)(C)[C@H](Oc6ccc(C#N)c(Cl)c6)C5(C)C)cn4)CC3)COC2)C(C)(C)C)cc1 (stereo partly drawn) [Example 803, N-((1r,3r)-3-(3-chloro-4-cyanophenoxy)-2,2,4,4-tetramethylcyclobutyl)-6-(4-(3-(4-(((S)-1-((2S,4R)-4-hydroxy-2-(((S)-1-(4-(4-methylthiazol-5-yl)phenyl)ethyl)carbamoyl)pyrrolidin-1-yl)-3,3-dimethyl-1-oxobutan-2-yl)amino)-4-oxobutyl)oxetan-3-yl)piperazin-1-yl)nicotinamide] | – | > 501 | Dmax (VCaP, VCaP cells; Table 36; read-out: VCaP Dmax (%)): 26 to 50%
11 | CC(C)(C)[C@H](NC(=O)COCCCCOc1ccc(-c2ccc(N3C(=S)N(c4ccc(C#N)c(Cl)c4)C(=O)C3(C)C)cc2)cc1)C(=O)N1C[C@H](O)C[C@H]1C(=O)NCc1ccc(-c2cncs2)cc1 [Example 111, (2S,4R)-1-[(2S)-2-{2-[4-(4-{4-[3-(3-chloro-4-cyanophenyl)-5,5-dimethyl-4-oxo-2-sulfanylideneimidazolidin-1-yl]phenyl}phenoxy)butoxy]acetamido}-3,3-dimethylbutanoyl]-4-hydroxy-N-{[4-(1,3-thiazol-5-yl)phenyl]methyl}pyrrolidine-2-carboxamide] | > 71 | – | DC50 [4]: < 50 nM
12 | C[C@H](NC(=O)[C@@H]1C[C@@H](O)CN1C(=O)[C@@H](NC(=O)COCCCCCNc1ccc(C(=O)N[C@H]2C(C)(C)[C@H](Oc3ccc(C#N)c(Cl)c3)C2(C)C)cc1)C(C)(C)C)c1ccc(-c2c[nH]nn2)cc1 [Example 517] | – | – | DC50 (VCaP cells; Table 35; read-out: VCaP DC50): < 50 nM; Dmax (VCaP, VCaP cells; Table 35; read-out: VCaP Dmax (%)): > 71%

Source: US11427548B2 (Arvinas Operations, Inc., priority 2015, dated 2022)
